Measurements published in US20260250320A1, “LIPIDATED PEPTIDE INHIBITORS OF INTERLEUKIN-23 RECEPTOR” (Janssen Pharmaceutica NV, priority 2023, published 2026).
*1 amine or outer side, *2 acyl side, *3 side chain or, on linkers, in order; H or OH if unused. Where a SMILES comes first, the peptide text is derived from it. Bridges are numbered along the chain shown (N, C = ends). Side-chain parts run from the residue outwards. [ ]: non-standard residue; d: D form. The star is where a group is joined. ξ: configuration not given here. Me3N+CH2CH2(OCH2CH2)4CO = C[N+](C)(C)CCOCCOCCOCCOCCC(=O)*; Me3N+(CH2)2O(CH2)2O(CH2)2CO = C[N+](C)(C)CCOCCOCCC(=O)*; X28 = CC(=O)[C@H](CCC(=O)*)NC(=O)CCCCCCCCCCCCCCCCC(=O)O; PEG12 = NCCOCCOCCOCCOCCOCCOCCOCCOCCOCCOCCOCCOCCC(=O)O; CH2CH2OCH2CH2OCH2CH2NMe3+ = C[N+](C)(C)CCOCCOCC*; Trp(7-Me) = Cc1cccc2c(C[C@H](N)C(=O)O)c[nH]c12; C20 diacid = O=C(O)CCCCCCCCCCCCCCCCCCC(=O)*; C18 diacid = O=C(O)CCCCCCCCCCCCCCCCC(=O)*; X40 = C=C(/C=N\C)C[C@H](N[*:1])C(=O)[*:2]; X6 = CN(CC[C@H](N[*:1])C(=O)[*:2])[*:3]; γGlu = O=C(O)[C@H](CCC(=O)[*:2])N[*:1]; 2Nal = N[C@@H](Cc1ccc2ccccc2c1)C(=O)O; AEF = NCCOc1ccc(C[C@H](N)C(=O)O)cc1; PEG6 = NCCOCCOCCOCCOCCOCCOCCC(=O)O; ξAEF = NCCOc1ccc(CC(N)C(=O)O)cc1; 3Pal = N[C@@H](Cc1cccnc1)C(=O)O; Lys(Me) = CNCCCC[C@H](N)C(=O)O; NMeK = CN[C@@H](CCCCN)C(=O)O; Pen = CC(C)(S)[C@H](N)C(=O)O; Thp = NC1(C(=O)O)CCOCC1; X1 = C[N+](C)(C)CCCCC*; AEEA = NCCOCCOCC(=O)O; Sar = CNCC(=O)O

Columns and labels:
IL-23R = target: T1, IL-23R (Homo sapiens, UniProt Q5VWK5); experiment: IL23R Reporter Assay; type: cell-based; details: HEK293 cells containing IL-23R, IL-12Rβ1 and STAT-inducible firefly luciferase reporter; 10 ng/mL IL-23 (EC90); 5 h
T1 construct: HEK293 cells containing IL-23R, IL-12Rβ1 and a firefly luciferase reporter gene driven by a STAT-inducible promoter (Promega); host or cells: HEK293
T1 sequence (Q5VWK5 24-629): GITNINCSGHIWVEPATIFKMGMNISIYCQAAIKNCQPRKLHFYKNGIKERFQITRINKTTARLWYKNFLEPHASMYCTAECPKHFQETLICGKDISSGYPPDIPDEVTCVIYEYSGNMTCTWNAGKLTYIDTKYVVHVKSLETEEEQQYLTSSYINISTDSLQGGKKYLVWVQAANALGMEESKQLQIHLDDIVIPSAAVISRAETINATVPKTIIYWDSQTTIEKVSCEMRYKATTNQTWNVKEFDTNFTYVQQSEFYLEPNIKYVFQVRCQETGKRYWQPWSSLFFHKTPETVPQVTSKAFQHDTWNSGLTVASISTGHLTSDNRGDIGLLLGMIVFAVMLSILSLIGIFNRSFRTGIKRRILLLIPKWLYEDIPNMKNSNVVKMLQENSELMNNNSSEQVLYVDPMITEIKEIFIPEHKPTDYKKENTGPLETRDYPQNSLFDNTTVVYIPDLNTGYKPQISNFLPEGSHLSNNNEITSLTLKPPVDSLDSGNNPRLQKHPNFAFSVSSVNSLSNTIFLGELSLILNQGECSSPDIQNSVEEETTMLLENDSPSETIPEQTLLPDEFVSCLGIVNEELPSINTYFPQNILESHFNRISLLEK
Method in brief: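 IC50 values were fitted with a 4-parameter Hill equation to luciferase signal, scaled between IL-23-only wells (0% inhibition) and 30 μM reference inhibitor (100%). The readout was a STAT-inducible reporter in IL-23R/IL-12Rβ1 HEK293 cells, stimulated with added 10 ng/mL IL-23 (EC90) for 5 h at 37° C and developed with BioGlo.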

[1] = test system: IL-23-stimulated phosphorylated STAT3 in peripheral blood mononuclear cells (PBMCs); experiment: PBMC pSTAT3 Assay; type: cell-based; details: PBMCs from healthy donors; 30 min preincubation with peptide; IL-23 5 ng/mL for 30 min; phospho-STAT3 by MSD
Procedure: Cryopreserved peripheral blood mononuclear cells (PBMCs) from healthy donors were thawed and washed twice in ImmunoCult-XF T cell expansion medium (XF-TCEM) supplemented with CTL anti-aggregate wash. The cells were counted, resuspended at 2-6×10^5 cells per mL XF-TCEM supplemented with penicillin/streptomycin and 100 ng/mL […] (BioLegend, 579404), and cultured in tissue culture flasks coated with anti-CD3 (eBioscience, 16-0037-85 or BD Pharmingen, 555329) at 37° C. in 5% CO2. On day 4 of culture, PBMCs were collected, washed twice in RPMI-1640 supplemented with 0.1% BSA (RPMI-BSA), and incubated in RPMI-BSA in upright tissue culture flasks for ~4 hours at 37° C. in 5% CO2. Following this 'starvation,' a total of 6×10^4 cells in 30 μL RPMI-BSA was transferred into each well of a 384-well plate pre-spotted with peptide or DMSO. The cells were incubated for 30 minutes prior to the addition of […] at a final concentration of 5 ng/mL. The cells were stimulated with cytokine for 30 minutes at 37° C. in 5% CO2, transferred onto ice for 10 minutes, and lysed. Cell lysates were stored at -80° C. until phosphorylated STAT3 was measured using the phospho-STAT panel kit (Meso Scale Discovery, […]). Results are provided below. • A: IC50<0.5 nM; • B: 0.5 nM≤IC50<5 nM; • C: 5 nM≤IC50; • ND: Not determined

Row | IC50 (IL-23R) [µM] | SMILES | IC50 [1] [µM]
1 | < 0.05 | C=C(/C=N\C)C[C@H](NC(=O)[C@H](CC(N)=O)NC(=O)[C@H](CCC(=O)O)NC(=O)C1(NC(=O)[C@H](Cc2ccc3ccccc3c2)NC(=O)[C@H](Cc2ccc(OCCN)cc2)NC(=O)[C@H]2NC(=O)[C@H](CCCCNC(C)=O)NC(=O)[C@H](Cc3c[nH]c4c(C)cccc34)NC(=O)[C@H]([C@@H](C)O)NC(=O)[C@H](CC(N)=O)NC(=O)[C@@H](NC(=O)[C@@H](CCCCNC(=O)CCOCCOCCOCCOCCOCCOCCOCCOCCOCCOCCOCCOCCNC(=O)CC[C@H](NC(=O)CCCCCCCCCCCCCCCCCCC(=O)O)C(=O)O)NC(C)=O)C(C)(C)SSC2(C)C)CCOCC1)C(=O)N(C)CC(N)=O [compound 26, MeCO-k(PEG12gEC20OH)-Pen(3)-N-T-7MeW-K(Ac)-Pen(3)-AEF-2Nal-THP-E-N-3Pya-Sar-CONH2] (Ac-[dK]([PEG12-γGlu-C20 diacid])[Pen]NT[Trp(7-Me)]K(Ac)[Pen][AEF][2Nal][Thp]EN[X40][Sar]-NH2; disulfide 2-7) | < 0.0005
2 | < 0.05 | CC(=O)[C@H](CCC(=O)NCCOCCOCCOCCOCCOCCOCCC(=O)NCCCC[C@@H](C(N)=O)N(C)C(=O)[C@H](Cc1cccnc1)NC(=O)[C@H](CC(N)=O)NC(=O)[C@H](CCC(=O)O)NC(=O)C1(NC(=O)[C@H](Cc2ccc3ccccc3c2)NC(=O)C(Cc2ccc(OCCN)cc2)NC(=O)[C@H]2NC(=O)[C@H](CCN(C)C(=O)CCOCCOCCOCCOCC[N+](C)(C)C)NC(=O)[C@H](Cc3c[nH]c4c(C)cccc34)NC(=O)[C@H]([C@@H](C)O)NC(=O)[C@H](CC(=O)N(C)C)NC(=O)[C@@H](NC(=O)CCOCCOCCOCCOCC[N+](C)(C)C)C(C)(C)SSC2(C)C)CCOCC1)NC(=O)CCCCCCCCCCCCCCCCC(=O)O (stereo partly drawn) [compound 91, HOC18gEPEG2PEG2COSP6-Pen(3)-N(N(Me)2)-T-7MeW-K(NMeAc)-Pen(3)-APEG3F-2Nal-THP-K(NMeAc)-N-3Pya-Sar-CON(Me)2] ({Me3N+CH2CH2(OCH2CH2)4CO}-[Pen]D(NMe2)T[Trp(7-Me)][X6](Me3N+CH2CH2(OCH2CH2)4CO)[Pen][ξAEF][2Nal][Thp]EN[3Pal][NMeK]([PEG6-X28])-NH2; disulfide 1-6) | < 0.0005
3 | < 0.05 | CC(=O)N(C)CCCC[C@@H]1NC(=O)[C@H](Cc2c[nH]c3c(C)cccc23)NC(=O)[C@H]([C@@H](C)O)NC(=O)[C@H](CC(=O)N(C)C)NC(=O)[C@@H](NC(=O)CCOCCOCC[N+](C)(C)C)C(C)(C)SSC(C)(C)[C@@H](C(=O)N[C@@H](Cc2ccc(OCCCCC[N+](C)(C)C)cc2)C(=O)N[C@@H](Cc2ccc3ccccc3c2)C(=O)NC2(C(=O)N[C@@H](CCCCNC(=O)COCCOCCNC(=O)COCCOCCNC(=O)CC[C@H](NC(=O)CCCCCCCCCCCCCCCCC(=O)O)C(=O)O)C(=O)N[C@@H](CC(N)=O)C(=O)N[C@@H](Cc3ccccc3)C(=O)N(C)CC(=O)N(C)C)CCOCC2)NC1=O [compound 120, cPEG3aCO-Pen(3)-N(N(Me)2)-T-7MeW-K(NMeAc)-Pen(3)-TMAPF-2Nal-THP-K(PEG2PEG2gEC18OH)-N-3Pya-Sar-CON(Me)2] ({Me3N+(CH2)2O(CH2)2O(CH2)2CO}-[Pen]D(NMe2)T[Trp(7-Me)][Lys(Me)](Ac)[Pen]Y(X1)[2Nal][Thp]K([AEEA-AEEA-γGlu-C18 diacid])NF[Sar]-NMe2; disulfide 1-6) | < 0.0005
4 | 0.05 to 0.5 | CC(=O)N(C)CCCC[C@@H]1NC(=O)[C@H](Cc2c[nH]c3c(C)cccc23)NC(=O)[C@H]([C@@H](C)O)NC(=O)[C@H](CC(=O)N(C)C)NC(=O)[C@@H](N)C(C)(C)SSC(C)(C)[C@@H](C(=O)N[C@@H](Cc2ccc(OCCOCCOCC[N+](C)(C)C)cc2)C(=O)N[C@@H](Cc2ccc3ccccc3c2)C(=O)NC2(C(=O)N[C@@H](CCCCN(C)C(C)=O)C(=O)N[C@@H](CC(N)=O)C(=O)N[C@@H](Cc3cccnc3)C(=O)N(C)CC(=O)N[C@@H](CCCCNC(=O)COCCOCCNC(=O)COCCOCCNC(=O)CC[C@H](NC(=O)CCCCCCCCCCCCCCCCC(=O)O)C(=O)O)C(=O)N(C)C)CCOCC2)NC1=O [compound 148, cPEG3aCO-Pen(3)-N(N(Me)2)-T-7MeW-K(NMeAc)-Pen(3)-APEC3F-2Nal-THP-K(NMeAc)-N-3Pya-Sar-K(PEG2PEG2gEC18OH)-CON(Me)2] (H-[Pen]D(NMe2)T[Trp(7-Me)][Lys(Me)](Ac)[Pen]Y(CH2CH2OCH2CH2OCH2CH2NMe3+)[2Nal][Thp][Lys(Me)](Ac)N[3Pal][Sar]K([AEEA-AEEA-γGlu-C18 diacid])-NMe2; disulfide 1-6) | < 0.0005
